Results published in patent US20100041597A1, “PEPTIDES TARGETED TO PROTEIN KINASE C ISOFORMS AND USES THEREOF” (priority 2005, published 2010).

Legend:
PKC-βII = assay: Competitive binding assay using cell extracts (Western blot); parameters: species or system human; key: —: no detectable affinity; Low to very low affinity at 10X or 20X or both PRE concentrations in at least one cell line in the cell extract assay; Low affinity in purified isoform assay.; Moderate affinity at 10X or 20X or both PRE concentrations in at least one cell line in the cell extract assay.; High affinity at 10X or 20X or both PRE concentrations in at least one cell line in the cell extract assay; High affinity in purified isoform assay; details: Cell extract; PRE at 10X, 20X antibody concentration; Table 20
Method: (§1) Binding efficiency and specificity of the peptides PRE 2, 3, 4, 5, 6, 7, 8, 9, 10, 11, 12 and 13 (see Table 3) was also tested using cytoplasmic extracts from different cell lines expressing appropriate PKC isoforms as described for Example 1. Briefly, the protein cytoplasmic extracts were separated by electrophoresis and transferred onto nitrocellulose membranes by standard Western blotting procedures. The bands on the Western blots were detected with matching primary antibodies and alkaline phosphatase conjugated secondary antibody. The bands were then scanned and the relative density measurements obtained.
(§2) This procedure to assess the binding characteristics of the PREs is based on competition binding of the PRE with the primary anti-isoform PKC specific antibodies. The lower the measured band density, the greater the binding of the PRE to the PKC isoform. The PREs were added at 10 and 20 times (10×, 20×) the primary antibody concentration, according to classical competition between antigenic peptide and primary antibody. The following cell lines (obtained from the ATCC) were used: H661—NCI human lung carcinoma NSCLC; MDAMB231—human highly invasive breast cancer cell line from pleural effusion; LS180—human colon adenocarcinoma; LnCAP—human prostate adenocarcinoma; CCD16Lu—human lung fibroblasts; Du145—human prostate carcinoma brain metastasis, and T24—human bladder carcinoma.
(§3) In these cases, the 20× band density figures relative to control and 10× values were reliable.

PKC-ι = biological target: T1, PKC-ι (Homo sapiens, UniProt P41743); assay: as above; parameters: key: —: no detectable affinity; Low to very low affinity at 10X or 20X or both PRE concentrations in at least one cell line in the cell extract assay; Low affinity in purified isoform assay.; Moderate affinity at 10X or 20X or both PRE concentrations in at least one cell line in the cell extract assay.; High affinity at 10X or 20X or both PRE concentrations in at least one cell line in the cell extract assay; High affinity in purified isoform assay; details: Cell extract; PRE at 10X, 20X antibody concentration; Table 20
T1 construct: cytoplasmic extracts from different cell lines expressing appropriate PKC isoforms; endogenous in cells; host or cells: MDAMB231, LnCAP, H661, CCD16Lu, Du145, LS180 (human, from ATCC)
T1 sequence (P41743 1-596): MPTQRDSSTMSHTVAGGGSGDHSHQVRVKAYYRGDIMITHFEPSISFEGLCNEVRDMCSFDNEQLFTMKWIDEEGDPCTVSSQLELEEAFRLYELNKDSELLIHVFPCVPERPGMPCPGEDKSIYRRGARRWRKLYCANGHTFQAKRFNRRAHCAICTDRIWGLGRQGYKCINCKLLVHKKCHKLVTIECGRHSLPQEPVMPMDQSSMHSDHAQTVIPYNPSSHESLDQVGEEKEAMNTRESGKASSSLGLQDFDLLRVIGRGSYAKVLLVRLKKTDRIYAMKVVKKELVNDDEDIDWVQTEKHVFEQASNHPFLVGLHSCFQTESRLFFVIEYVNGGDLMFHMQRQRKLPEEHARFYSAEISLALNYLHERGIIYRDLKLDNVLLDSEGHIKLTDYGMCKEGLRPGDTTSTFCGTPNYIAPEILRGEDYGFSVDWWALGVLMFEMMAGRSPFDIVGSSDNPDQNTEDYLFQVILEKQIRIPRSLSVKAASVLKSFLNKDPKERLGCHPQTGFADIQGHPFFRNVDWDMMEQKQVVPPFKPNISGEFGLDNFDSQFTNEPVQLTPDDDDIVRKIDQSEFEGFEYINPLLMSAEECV
Method: as §1, §2, §3

PKC-α = assay: Binding of PREs to PKC-α in V5E-transfected IMR-32 cells and effect on cell morphology; format: cell-based, human; details: V5E-transfected IMR-32 cells; for Relative Fluorescence Intensity (mean): PRE by pinocytic endocytosis, transfected + reagent control 113
Source text: Neuroblastoma cells from the IMR-32 cell line were stably transfected with a vector containing the V5E sequence of PKC-α as outlined above in Example 13. The V5E sequence is part of the antigenic amino acid sequence that is used to raise the commercially available anti-PKC-α isoform-specific antibody.
The peptides PRE 1, 2, 3, 4, 5, 6, 7, 8, 9, 10, 11, 12 and 13 (see Table 3) were incorporated into the transfected IMR-32 cells via pinocytic endocytosis (Molecular Probes) according to the supplier's recommendations. Following fixation and permeabilization, PKC-α was detected using an Alexa fluor secondary antibody (as described above in Example 8).
Results: The expressed V5E fragment adds to the decoration of PKC-α in the transfected IMR-32 cells since it is recognized by the same antibody (compare FIGS. 20A and 20B).

PKC-ζ = biological target: T2, PKC-ζ (Homo sapiens, UniProt Q05513); assay: Competitive binding assay using cell extracts (Western blot); parameters: cytoplasmic extracts from different cell lines expressing appropriate PKC isoforms; endogenous in cells; host or cells: MDAMB231, LnCAP, Du145, H661, CCD16Lu (human, from ATCC); key: —: no detectable affinity; Low to very low affinity at 10X or 20X or both PRE concentrations in at least one cell line in the cell extract assay; Low affinity in purified isoform assay.; Moderate affinity at 10X or 20X or both PRE concentrations in at least one cell line in the cell extract assay.; High affinity at 10X or 20X or both PRE concentrations in at least one cell line in the cell extract assay; High affinity in purified isoform assay; details: Cell extract; PRE at 10X, 20X antibody concentration; Table 20
T2 sequence (Q05513 1-592): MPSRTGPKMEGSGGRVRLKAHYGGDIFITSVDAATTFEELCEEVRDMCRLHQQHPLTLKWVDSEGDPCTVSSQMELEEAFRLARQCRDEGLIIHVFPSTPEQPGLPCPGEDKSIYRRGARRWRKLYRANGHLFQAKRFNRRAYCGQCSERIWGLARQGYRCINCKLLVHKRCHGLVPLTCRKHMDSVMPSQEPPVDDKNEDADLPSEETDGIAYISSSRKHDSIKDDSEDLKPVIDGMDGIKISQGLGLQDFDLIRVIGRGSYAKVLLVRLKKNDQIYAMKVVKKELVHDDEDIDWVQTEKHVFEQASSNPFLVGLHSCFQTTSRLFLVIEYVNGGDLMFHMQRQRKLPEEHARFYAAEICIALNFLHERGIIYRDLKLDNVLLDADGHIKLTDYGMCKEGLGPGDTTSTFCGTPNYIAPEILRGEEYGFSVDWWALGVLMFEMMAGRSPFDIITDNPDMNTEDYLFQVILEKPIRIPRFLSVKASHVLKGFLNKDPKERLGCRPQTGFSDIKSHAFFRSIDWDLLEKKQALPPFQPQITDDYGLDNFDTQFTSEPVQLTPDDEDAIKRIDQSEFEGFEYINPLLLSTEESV
Method: as §1, §2, §3

Substance	Affinity for PKC isoform βII (PKC-βII)	Affinity for PKC isoform ι (PKC-ι)	PKC-α label (PKC-α)	Relative Fluorescence Intensity (mean) (PKC-α)	Affinity for PKC isoform ζ (PKC-ζ)	effect on cell morphology (PKC-α)	effect on karyokinesis (PKC-α)
Ac-AKGIQEVKGGDAQNLIGISI-NH2 [PRE 3]	L	L	more intense perinuclear decoration	83	—		
Ac-AKGIQEVKGGKDAQNLIGISI-NH2 [PRE 5]	H			124	L/H	poor morphology	aborted karyokinesis
Ac-ISIGILNQADK-NH2 [PRE 10]	—				M/L		aborted karyokinesis
Ac-ISIGILQNADK-NH2 [PRE 7]		—			—		
Ac-KDANQLIGISI-NH2 [PRE 6]		—			—		aborted karyokinesis
Ac-KDAQNLI-NH2 [PRE 12]	L	—			M/H	little effect on the cell morphology	
Ac-KDAQNLIGISI-NH2 [PRE 4, Ac-KDAQNLIGISI-NH2]	L	M/L	decreased label	79	—	morphological changes with enlarged cells	
Ac-RDAQNLI-NH2 [PRE 13]		—		116	—	little effect on the cell morphology	
Ac-RDAQNLIGISI-NH2 [PRE 11]					—	apoptotis	
Ac-isigilgnadk-NH2 [PRE 9]	—		strong perinuclear label	121	M/L		
ILEDKGGDAQNLIGISI [PRE 8]	H						
RRKKGGKDFVVKR [PRE 1]		—			L	many dividing cells and abnormal morphology	
